This note sets out measurements from a melting point compilation (Tetko et al.; mined from patent text by program, amines drawn as free bases though some values may be those of a salt).

Bounds are passed on as bounds.

`CCN1C(=O)N(c2cc(Cl)cc(Cl)c2)C(=O)[C@]12CN(S(=O)(=O)c1cccc(C(=O)O)c1)C[C@H]2c1ccc(C#N)cc1` (relative stereo): the melting point (in general, the temperature of the solid-liquid transition) was 145 °C.

As to `NC(=O)N(O)CCNC(=O)c1ccc2ccccc2n1`, the melting point lay within 189 to 190 °C.

`O=C(O)C1CCCc2c(noc2-c2ccc(Cl)cc2)C1` (centres undefined) registered a melting point of 231 to 233 °C.

Consider `CCCc1cnc2c(c1)C(=O)N1C2=NC(=O)C1(C)C(C)C` (centres undefined), for which the melting point came to 116 °C.

With `CCN(CC)Cc1ccc(CN2C(=O)COc3c(C)cc(C=C4SC(=S)NC4=O)cc32)cc1`, the melting point is 250 to 252 °C.

Compound `Cc1c(C(=O)Nc2ccc(N3CCC(N4CCOCC4)CC3)c(C#N)c2)cnn1-c1ccc(Cl)c(Cl)c1` returned a melting point of 242 °C.

Compound `O=C(O)C(=O)c1ccc(OCCCCOc2ccc3ccccc3c2)cc1` registered a melting point of 133 to 135 °C.

On to `CSc1nc(-n2cnc([N+](=O)[O-])n2)c2cc(Br)ccc2n1`, for which the melting point was 204 °C.

With `Cc1ccccc1OCCC1CCN(c2cc(Cl)nnc2Cl)CC1`, the melting point was in the range of 106 to 108 °C.

`NC(=O)c1cccc2c1[nH]c1c3cc(Br)ccc3oc21` had a melting point of 300 to 301 °C.

The compound `COc1ncccc1NC(=NC#N)NC(NC(=O)c1cc(Cl)cc(Cl)c1)C(C)(Cl)Cl` (centres undefined) came in with a melting point of 149 to 150 °C.

`CCCc1nc(SC)c(C(O)(C(=O)O)c2ccccc2)n1Cc1ccc(-c2ccccc2S(=O)(=O)NC(=O)NCc2ccccc2)cc1` (centres undefined): the melting point was found to be 170 °C.

In turn, `CCCCc1oc2ccc(NS(C)(=O)=O)cc2c1C(O)c1ccc(OCCCN(CCCC)CCCC)cc1` (centres undefined) yielded a melting point of 94 °C.

Consider `Cc1cccc(C(=O)Nc2c(NC(=O)CCl)ccc3c2C(=O)c2ccccc2C3=O)c1`, for which the melting point is 202 to 203 °C.

As to `CC(C)C(N=C(NN)NN)C(=O)O` (centres undefined), the melting point fell in the range of 112 to 116 °C.

`CN(C(=O)CBr)n1cccc1C(=O)c1ccccc1`: the melting point was 76 to 78 °C.

In the case of `O=C1[C@H](CC[C@H](O)c2ccc(F)cc2)[C@@H](c2ccc(Br)cc2OCc2ccccc2)N1c1ccccc1`, the melting point came out at 114 °C.

`O=C(O)CCCCCO/N=C/c1cccnc1` came in with a melting point of 117 °C.

The compound `CCOC(=O)c1ccc(NCCc2ccc(Cl)cc2)cc1` gave a melting point of 75 to 77 °C.

In the case of `COc1ccc(-c2cc3cc(F)c(F)cc3[nH]2)cc1NS(=O)(=O)c1cccs1`, the melting point fell in the range of 211 to 213 °C.

`CCC(CO)Nc1nc(NCc2ccccc2N)c2ncn(C(C)C)c2n1` (racemic) gave a melting point of 149 to 151 °C.

In turn, `CC(C)C(=O)CCC(C)C1CCC2C3C=CC4=CC(=O)C5OC5C4(C)C3CCC12C` (centres undefined) returned a melting point of 150 to 152 °C.

Compound `COc1ccnc(C(C)Sc2nc3cc(OC(F)(F)C(F)Cl)ccc3[nH]2)c1` (centres undefined) returned a melting point of 120 to 122 °C.

For `CN1C(=O)C(=Cc2cc(C(C)(C)C)c(O)c(C(C)(C)C)c2)SC1=S`, the melting point was greater than 230 °C.

The compound `Cc1c2n(c3ccccc13)C(=O)C(C(O)c1cccnc1)CC2` (centres undefined) came in with a melting point of 83 to 86 °C.

Compound `CS(=O)(=O)Nc1nc2nc(NC3CCOCC3)ncc2cc1Oc1ccc(F)cc1F` returned a melting point of 199 to 204 °C.

`N#CC(Br)(Br)c1ccccn1`: the melting point was 59 to 61 °C.

Consider `CC(C)n1c(=O)nc(-c2ccccc2)c2cc3c(cc21)OCO3`, for which the melting point was 189 to 190 °C.

`O=c1ccc2cnc(Nc3ccccc3)nc2n1CCCOc1ccccc1` had a melting point of 175 to 176 °C.

`Nc1nc2ccccc2c2c1ncn2CCCCNC(=O)c1ccncc1` registered a melting point of 213 to 214 °C.

Take `CCCCCCCCCCCCCCOc1ccc(C(=O)OC)cc1Cl`: the melting point is 42 to 43 °C.

The compound `CC(C)c1nn(-c2ccc(Cl)cn2)cc1CO` returned a melting point of 135 to 136 °C.

`CCCCCCCCCc1ccc(C(=O)[C@@H]2CCCC[C@H]2C(=O)O)cc1` (relative stereo) had a melting point of 84 to 86 °C.

In the case of `Nc1nc(N)c(-c2ccc(Cl)cc2Cl)c(Cl)n1`, the melting point is 219 °C.

For the compound `COc1ccc(C2CCN(C(=O)Nc3ccc4cc(CN5C(C)(C)CCCC5(C)C)ccc4c3)CC2)cc1`, the melting point is 164 to 166 °C.

With `CCCCCCCCn1c2cc(OC)ccc2c2ccc(OC)cc21`, the melting point fell in the range of 63 to 64 °C.

For the compound `COC(=O)c1cc(NC(=O)c2ccnc(C)c2)c2cc(Cc3ccc(F)cc3)cnc2c1O`, the melting point lay within 229 to 230 °C.

`CCOC(=O)C1=C(C)NC(C=O)=C(C(=O)OCC)C1c1cc([N+](=O)[O-])ccc1Cl` (centres undefined): the melting point was in the range of 172 to 173 °C.

The compound `NS(=O)(=O)c1c(C(=O)O)cnn1-c1cccc(Cl)n1` showed a melting point of 179 to 182 °C.

`O=C(O)CC1(C(=O)OCc2ccccc2)C(=O)N(Cc2ccc(Cl)c(Cl)c2)C(=O)c2cccn21` (centres undefined) showed a melting point of 134 to 136 °C.

Turning to `CCOC(=O)c1ccc(Br)cc1-c1ccc(OC)c(OC)c1`, the melting point came to 53 °C.

`COC(=O)c1c(C)nc2c(c(-c3ccccc3)nn2C)c1-c1ccc(F)cc1` displayed a melting point of 142 to 144 °C.

`CN1CCN(Cc2cnc(Nc3cc(-c4cccc(-n5ncc6cc(C(C)(C)C)cc(F)c6c5=O)c4CO)nn(C)c3=O)cn2)CC1`: the melting point fell in the range of 215 to 218 °C.

As for `O=S1CCOCC1c1ccc(Cl)c(Cl)c1` (centres undefined), the melting point was in the range of 100 to 103 °C.

Compound `CN1CCC(Oc2ccc(C#N)cc2C(F)(F)F)CC1` had a melting point of 66 to 69 °C.

In the case of `CSc1nc(=O)n(C)c(=O)[nH]1`, the melting point is 243 to 244 °C.

For the compound `Nc1nc(-c2ccncc2)nc2[nH]c(S)nc12`, the melting point was greater than 330 °C.

Compound `COCCCS(=O)(=O)NC(=O)CCc1ccc(OCCOC)cc1Oc1ncc(C(F)(F)F)cc1Cl` yielded a melting point of 112 to 113 °C.

Regarding `O=C1CC(C(=O)O)(c2ccccc2)C1`, the melting point was in the range of 133 to 135 °C.

The compound `CC1(CNC=O)CC(=O)c2ccccc2O1` (centres undefined) displayed a melting point of 96 to 98 °C.

Turning to `ON=Cc1ccc(-c2ccc(Cl)cc2)o1`, the melting point was 139 to 141 °C.

`COC(CN1CCN(c2ccccc2)CC1)c1ccc(C)nc1` (centres undefined) returned a melting point of 93 °C.

For the compound `CCCCCCCCCCCCc1cc(CBr)on1`, the melting point fell in the range of 31.5 to 35 °C.

Turning to `CC(C(=O)O)c1ccc(CC(C)C(C)O)cc1` (centres undefined), the melting point was in the range of 85 to 88 °C.

In turn, `CC/C(=C(\c1ccc(/C=C/C(=O)O)cc1)c1ccc(OC(=O)CN(C)C)cc1)c1ccccc1` showed a melting point of 206 to 208 °C.

With `CCOc1cccc(-n2cc(-c3ccc4c(c3)OCO4)c3c(N)ncnc32)c1`, the melting point was 153 to 155 °C.

`Cc1cc2nc3c4cc(O)ccc4n(CCN(C)C)c3nc2cc1C`: the melting point is greater than 260 °C.

Compound `CSc1ccc2ccc3c(SC)cc(SC)c4ccc1c2c34` showed a melting point of 235 to 240 °C.

In turn, `CCCCCCCCCCOc1cc(OCCCCCCCCCC)cc(N(CC(=O)OCc2ccccc2)CC(=O)OCc2ccccc2)c1` displayed a melting point of 55 to 57 °C.

Turning to `CN1C(=O)[C@H](NC(=O)CCc2cccc(C(F)(F)F)c2)N=C(c2ccccc2)c2ccccc21`, the melting point lay in the range of 135 to 136 °C.

Compound `COC(=C1C2CC3CC(C2)CC1C3)c1cc(OC)cc(OC(=O)C(C)(C)C)c1` showed a melting point of 159 °C.

As to `CC(C(=O)O)c1ccc2cc(OCc3nc4ccccc4s3)ccc2c1` (centres undefined), the melting point was 169 to 171 °C.

In turn, `Sc1c(Br)cc(Br)cc1Br` yielded a melting point of 114 to 116 °C.

On to `CCCc1c(OCCCSc2ccc(C(=O)CCC(=O)O)c(O)c2)ccc(C(C)=O)c1O`, for which the melting point came out at 140 °C.

Consider `COC(=O)c1sc2cc(O)ccc2c1C`, for which the melting point lay in the range of 174 to 176 °C.

For `CCOc1cc(CCC2OC(=O)NC2=O)ccc1O` (centres undefined), the melting point lay within 154 to 155 °C.

For the compound `Cc1nn(-c2cc3nc(S(C)=O)sc3cc2F)c(=O)n1C` (centres undefined), the melting point lay within 199 to 201 °C.

Turning to `CCC(CC)C(=O)O[C@H]1C[C@H](O)C=C2C=C[C@H](C)[C@H](CC[C@@H]3C[C@@H](O)CC(=O)O3)[C@H]21`, the melting point stood at 158 °C.

Regarding `Cn1c(C(F)(F)F)cc(=O)n(C)c1=O`, the melting point lay in the range of 85 to 87 °C.

`Cc1nn(C)c(C)c1NC(=S)n1ccc2cc(Cl)ccc21` gave a melting point of 165 to 166 °C.

`CSC(C[C@@H]1CC(=O)N1[Si](C)(C)C(C)(C)C)(SC)SC`: the melting point is 61 to 62 °C.

`COc1ccc(C2c3[nH]c4ccccc4c3CCN2C(=O)C=Cc2ccccc2)cc1` (centres undefined): the melting point was 127 °C.

With `CCOC(=O)Cc1sc(Sc2cc(C(=O)OC)nc3ccccc23)nc1C`, the melting point lay in the range of 94 to 95 °C.

On to `Cc1ccc2c(c1)CC(=O)N2c1c(F)cc(F)c(F)c1F`, for which the melting point was 172 to 173 °C.

For the compound `CC(C)C(N)C(O)COc1ccccc1C1=NNC(=O)CC1` (centres undefined), the melting point was 124 to 126 °C.

`OCCN(CCO)c1cc(-c2ccccn2)nc(-c2ccccn2)c1` had a melting point of 171 to 172 °C.

Turning to `COC(=O)C=Cc1cc(Oc2c(Cl)cc(C(F)(F)F)cc2Cl)ccc1[N+](=O)[O-]`, the melting point worked out at 90 °C.

In turn, `CC(CO)CCCC(C)C1CCC2C3CC=C4CCCC(O)C4(C)C3CCC12C` (centres undefined) came in with a melting point of 158 to 160 °C.

For the compound `Cc1cn(C2(C(=O)N(C)C)CC2)nc1-c1ccccc1`, the melting point lay within 52 to 55 °C.

`COC(=O)c1cccc(Cl)c1N` displayed a melting point of 36 °C.

For the compound `CC(C)=CCCC(C)=CCOc1ccc(C(=O)NCc2ccncc2)cc1`, the melting point was 108 to 110 °C.

The compound `CC(C)Oc1nc(-n2cccn2)nc(Cl)c1-c1c(F)cc(F)cc1F` registered a melting point of 106 to 107 °C.

`CCC(C)=NOC(=NC1CCCCC1)N(C(=O)c1ccccc1)C1CCCCC1` came in with a melting point of 74 to 78 °C.

The compound `Cc1cc(C)cc(CNC(=O)C(Cc2c[nH]c3ccccc23)NC(=O)c2ccccc2)c1` (centres undefined) yielded a melting point of 177 to 178 °C.

In the case of `CCCCCOc1ccc(C=C2SC(=S)N(CC(=O)O)C2=O)cc1OCc1ccccc1`, the melting point was in the range of 229 to 234 °C.

For the compound `CC(C(=O)O)c1ccc(Nc2ccc(Cl)cc2)cc1` (centres undefined), the melting point was 106 to 109 °C.

The compound `O=Cc1cccnc1S(=O)(=O)c1ccc(Cl)cc1` had a melting point of 100 to 101 °C.

`CCCCCCc1cc2c(s1)-n1c(C)nnc1CN=C2c1ccccc1Cl` registered a melting point of 111 to 113 °C.

Consider `CN1C(=O)CCC2=C1CCc1cccc(F)c12`, for which the melting point fell in the range of 75 to 76 °C.
